From the supplement of paper PMC11699113
Structures can show the parent of a compound that is named as a salt.

Tested on: ED cells (E. derm NBM-6, ATCC CCL-57)
Assay: cell viability (ATP, CellTiter-Glo) relative to untreated control (fraction of control); higher = less cytotoxic

CCC[C@@]1(CCc2ccccc2)CC(O)=C([C@H](CC)c2cccc(NS(=O)(=O)c3ccc(C(F)(F)F)cn3)c2)C(=O)O1 [tipranavir]
cell viability
Details	0.25 µM	0.5 µM	2 µM	5 µM	10 µM	20 µM	50 µM	100 µM	140 µM	166 µM
incubation time: 1h	1.01	1	0.997	1	1	0.982	0.958	0.789	0.636	0.622
incubation time: 24h	1.01	1	0.993	1	1.03	0.966	0.885	0.718	0.505	0.498
incubation time: 72h	1.04	1.04	1.04	1.02	1.01	0.99	0.822	0.557	0.294	0.212
incubation time: 144h	1	1.01	1.01	1	0.996	0.973	0.772	0.405	0.109	0.0669

CC(C)OC(=O)OCOP(=O)(CO[C@H](C)Cn1cnc2c(N)ncnc21)OCOC(=O)OC(C)C [tenofovir disoproxil fumarate]
cell viability
Details	0.5 µM	2 µM	5 µM	10 µM	20 µM	40 µM	50 µM	75 µM	100 µM	150 µM
incubation time: 1h	1.01	1.01	1.02	1.02	1.01	0.999	1	1	0.999	0.988
incubation time: 24h	1.02	1.01	1	0.98	0.95	0.89	0.855	0.795	0.721	0.613
incubation time: 72h	1	0.992	0.947	0.898	0.836	0.75	0.708	0.643	0.643	0.545
incubation time: 144h	1.02	0.993	0.941	0.877	0.833	0.766	0.737	0.662	0.624	0.527

CC(C)c1nc(CN(C)C(=O)N[C@H](C(=O)N[C@@H](Cc2ccccc2)C[C@H](O)[C@H](Cc2ccccc2)NC(=O)OCc2cncs2)C(C)C)cs1 [ritonavir]
cell viability
Details	0.5 µM	2 µM	5 µM	10 µM	25 µM	50 µM	80 µM	100 µM	200 µM	300 µM
incubation time: 1h	1.05	1.05	1.05	1.03	1	0.976	0.899	0.879	0.881	0.887
incubation time: 24h	1.03	0.991	0.964	0.922	0.886	0.834	0.426	0.372	0.363	0.363
incubation time: 72h	1.01	0.949	0.868	0.81	0.763	0.686	0.00794	0.00652	0.00418	0.00806
incubation time: 144h	1	0.966	0.901	0.854	0.788	0.703	0.0753	0.0037	0.00476	0.00437

O=C1Nc2ccc(Cl)cc2[C@@](C#CC2CC2)(C(F)(F)F)O1 [efavirenz]
cell viability
Details	0.5 µM	2 µM	5 µM	10 µM	20 µM	40 µM	50 µM	75 µM	100 µM	150 µM
incubation time: 1h	1.05	1.04	1.02	0.985	0.902	0.523	0.35	0.164	0.0891	0.0482
incubation time: 24h	0.985	0.989	1.01	0.999	0.979	0.618	0.194	0.00645	0.0077	0.00431
incubation time: 72h	1.04	1.04	1.04	1.03	1.01	0.907	0.659	0.0635	0.0176	0.00453
incubation time: 144h	1.02	1.02	1.02	1	0.969	0.862	0.574	0.128	0.113	0.00579

Cc1ccnc2c1NC(=O)c1cccnc1N2C1CC1 [nevirapine]
cell viability
Details	0.5 µM	2 µM	5 µM	10 µM	25 µM	50 µM	80 µM	100 µM	200 µM	300 µM
incubation time: 1h	1.05	1.04	1.05	1.05	1.05	1.04	1.05	1.04	1.05	1.04
incubation time: 24h	1.06	1.06	1.07	1.07	1.08	1.09	1.06	1.08	1.05	1.04
incubation time: 72h	1.04	1.05	1.07	1.07	1.06	1.06	1.03	1.02	0.958	0.924
incubation time: 144h	1	1.02	1.02	1.03	1.02	0.989	0.962	0.961	0.886	0.848

Nc1ccn([C@@H]2CS[C@H](CO)O2)c(=O)n1 [lamivudine]
cell viability
Details	0.5 µM	2 µM	5 µM	10 µM	20 µM	40 µM	50 µM	75 µM	100 µM	150 µM
incubation time: 1h	1.04	1.02	1.03	1.03	1.02	1.01	1.01	1.02	0.997	0.979
incubation time: 24h	1.02	1.03	1.03	1.03	1.03	1.03	1.02	1.03	1.03	1.04
incubation time: 72h	1.03	1.04	1.05	1.04	1.06	1.05	1.04	1.04	1.04	1.02
incubation time: 144h	1.03	1.03	1.04	1.04	1.04	1.04	1.03	1.04	1.03	1

Cc1cn([C@H]2C[C@H](N=[N+]=[N-])[C@@H](CO)O2)c(=O)[nH]c1=O [zidovudine]
cell viability
Details	0.5 µM	2 µM	5 µM	10 µM	25 µM	50 µM	80 µM	100 µM	200 µM	300 µM
incubation time: 1h	1.05	1.06	1.05	1.04	1.02	1.04	1.04	1.04	1.03	1.02
incubation time: 24h	1.06	1.05	1.02	1.02	1.02	1.05	0.981	0.98	1.04	0.958
incubation time: 72h	1.07	1.07	1.09	1.09	1.08	1.09	1.07	1.08	1.09	1.08
incubation time: 144h	1.01	1.03	1.03	1.03	1.04	1.03	1.03	1.04	1.06	1.06

Nc1nc(NC2CC2)c2ncn([C@H]3C=C[C@@H](CO)C3)c2n1 [abacavir]
cell viability
Details	0.5 µM	2 µM	5 µM	10 µM	25 µM	50 µM	80 µM	100 µM	200 µM	300 µM
incubation time: 1h	1	0.999	1	1	1	0.999	0.994	0.99	0.983	0.982
incubation time: 24h	1.01	1.02	1.01	1.01	0.99	0.944	0.924	0.91	0.846	0.788
incubation time: 72h	1.02	1.03	0.999	0.978	0.925	0.846	0.785	0.745	0.604	0.506
incubation time: 144h	1.04	1.02	0.992	0.949	0.884	0.816	0.754	0.735	0.596	0.458

CC(C)CN(C[C@@H](OP(=O)(O)O)[C@H](Cc1ccccc1)NC(=O)O[C@H]1CCOC1)S(=O)(=O)c1ccc(N)cc1 [fosamprenavir]
cell viability
Details	0.03 µM	0.06 µM	0.125 µM	0.25 µM	0.5 µM	2 µM	5 µM	10 µM	20 µM	32 µM
incubation time: 1h	1.1	1.13	1.11	1.11	1.11	1.1	1.1	1.11	1.1	1.08
incubation time: 24h	1.01	1.01	1.01	1	0.994	1	0.979	0.978	0.978	0.949
incubation time: 72h	1.08	1.08	1.08	1.08	1.08	1.08	1.04	1.03	1	0.953
incubation time: 144h	1.02	1.04	1.04	1.06	1.05	1.05	1.04	1.02	0.993	0.957

Nc1nc(=O)n([C@@H]2CS[C@H](CO)O2)cc1F [emtricitabine]
cell viability
Details	0.5 µM	2 µM	5 µM	10 µM	25 µM	50 µM	80 µM	100 µM	200 µM	300 µM
incubation time: 1h	0.999	0.996	1.01	1.01	0.998	1	1.01	1.01	0.998	1.01
incubation time: 24h	0.998	1.02	1.02	1.04	1.04	1.03	1.03	1.03	1.01	1
incubation time: 72h	1.03	1.05	1.05	1.05	1.05	1.04	1.04	1.03	0.999	0.999
incubation time: 144h	1.03	1.05	1.06	1.06	1.06	1.05	1.04	1.05	1.05	1.02
